Assay results reported in patent publication US9944613B2, “Fumagillol spirocyclic compounds and fused bicyclic compounds and methods of making and using same” (Zafgen, Inc., priority 2015, dated 2018).
Where a name gives a salt, the structure may show the parent alone. Read-outs that look alike come from different tables or passages of the source.

How the values were obtained:
[1] = system: Diet Induced Obese (DIO) C57BL/6 mice; experiment: 10 day DIO mouse model, weight loss vs. vehicle; type: in vivo; conditions: 240 h, 0.3 mpk sc once a day for 10 days
Text: The objective of this study design was to investigate the efficacy of disclosed compounds in a 10 day DIO mouse model. Effects on body weight, food intake, hematology and blood chemistry were the primary readouts of this study design. Male, Diet Induced Obese (DIO) C57BL/6 mice, 19-21 weeks of age (13-15 weeks on high fat diet) were ordered from a certified vendor and upon receipt were housed on irradiated corncob bedding in micro-isolator cages on a 12-hour light-dark cycle (0700-1900) at 68-74° F. and 30-70% humidity. Mice were fed Research Diets D12492 (60% Kcal fat, 20% Kcal carbohydrate and 20% protein) and provided water ad libitum. DIO mice were received and housed in the facility for approximately two weeks prior to the start of test article administration. On Day −4 or −3, mice were randomized into study groups based on body weight and body weights were continued to be recorded daily for the duration of the study. Daily food intake was assessed starting on Study Day −2 by weighing of the food with hopper together to avoid loss of food in transfer.
Compounds were formulated into a 100% DMSO stock (at 9 mg/mL) prior to the start, and further diluted into the target working concentration using the vehicle of 10% DMSO in water. Prior to test article administration, starting on Day −3 a dosing acclimation occured with all animals receiving a subcutaneous injection of vehicle (10% DMSO) only for 3 days. Starting on Day 1, test compounds or vehicle were administered based on individual body weight, subcutaneously, once a day for 10 days. All mice were sacrificed on Day 11, 24 hours following the final dosing on Day 10. After sacrifice, whole blood was collected and analyzed for hematology and blood chemistry parameters.
Compounds were tested for weight loss vs. vehicle at 0.3 and 1.0 mpk sc (mg per kg animal weight delivered subcutaneously), and the results are shown in Table 2 below.

recombinant human MetAP2 = target: T1, recombinant human MetAP2 (Homo sapiens, UniProt P50579); experiment: Inhibition of recombinant human MetAP2 activity (MAS peptide / amino acid oxidase / Amplex assay); type: biochemical
T1 construct: Flag; made in house
T1 sequence (P50579 whole entry): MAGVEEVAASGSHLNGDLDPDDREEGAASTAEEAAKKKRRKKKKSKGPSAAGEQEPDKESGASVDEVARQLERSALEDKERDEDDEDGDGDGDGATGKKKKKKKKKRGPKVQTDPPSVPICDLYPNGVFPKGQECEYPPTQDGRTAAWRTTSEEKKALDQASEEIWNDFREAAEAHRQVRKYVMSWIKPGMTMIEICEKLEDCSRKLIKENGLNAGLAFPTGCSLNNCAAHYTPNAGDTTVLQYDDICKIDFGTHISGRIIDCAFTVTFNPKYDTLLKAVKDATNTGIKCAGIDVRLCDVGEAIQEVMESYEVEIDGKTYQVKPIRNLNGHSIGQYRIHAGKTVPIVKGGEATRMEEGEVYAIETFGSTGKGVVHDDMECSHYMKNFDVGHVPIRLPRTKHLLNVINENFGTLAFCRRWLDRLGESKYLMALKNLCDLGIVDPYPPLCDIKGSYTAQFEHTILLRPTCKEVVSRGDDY
Protocol: Compounds are tested for their capacity to inhibit recombinant human MetAP2 activity using the following assay.
Flag tagged Human recombinant MetAP2 expressed and isolated for use as the enzyme source. 10 mM stock solutions of compounds were prepared in 100% DMSO and further diluted in 100% DMSO required concentration to 1 mM stocks. The stock compound solutions and DMSO vehicle controls were diluted to target final compound concentrations using assay buffer to a final concentration of 50 mM HEPES containing 100 mM NaCl, pH adjusted to 7.5. The MAS peptide was formulated to a 7.5 mM stock in distilled water and prior to use further diluted 1:4. […] 40 μl of enzyme was mixed with 100 μl of MnCl2 then further diluted in assay buffer to a final concentration of 16 μg/ml. To test for compound effect on MetAP2 enzyme activity, 5 μl of test compound, 10 μl of MAS substrate/amino acid oxidase mixture, 10 μl of MetAP2 was added to test wells in a 384 well black plate with blank wells containing no enzyme, replaced with 10 μl of assay buffer. All compounds were tested in duplicate on two occasions on the same day.
The plate was sealed with a TopSeal A cover and mixed briefly on an orbital mixer at 900 rpm. The plate was incubated for a further 25 minutes at 25° C. A 5× stock of Amplex buffer was prepared (0.25M sodium phosphate, pH 7.4) and stored at 4° C. When preparing for use the stock was diluted with distilled water. […] Horse radish peroxidase was diluted in […] of Amplex buffer, 100 μl of this was combined with 50 μl of Amplex Ultrared in […] of 1× Amplex buffer to generate sufficient detection reagent for a 384 well plate. 25 μl detection reagent was added to each well of the test plate, which was re-sealed and mixed briefly on an orbital shaker. The plate was transferred to an Envision Multi-label reader and RFU measured corresponding to excitation 531 nm and emission 595 nm. At the end of the MetAP2 incubation 25 μl Amplex/HRP mixture per well was added and the plate read plate on a plate reader.

[2] = Flag tagged human recombinant MetAP2, 25 minutes at 25° C., read-out: MetAP2 IC50

| IC50 (recombinant human MetAP2; [2]) | Structure (SMILES) | inhibition in vivo at 0.3 mg/kg [1] | IC50 (recombinant human MetAP2) |
| --- | --- | --- | --- |
| < 50 nM | CO[C@@H]1[C@H](OC(=O)N2CC3(CCN(C)CC3)C2)CC[C@]2(CO2)[C@H]1[C@@]1(C)O[C@@H]1CC=C(C)C [Example 8, (3R,4S,5S,6R)-5-methoxy-4-((2R,3R)-2-methyl-3-(3-methylbut-2-enyl)oxiran-2-yl)-1-oxaspiro[2.5]octan-6-yl 7-methyl-2,7-diazaspiro[3.5]nonane-2-carboxylate formate] | 6.2% |  |
|  | CO[C@@H]1[C@H](OC(=O)N2CCC3(CCN(C)CC3)CC2)CC[C@]2(CO2)[C@H]1[C@@]1(C)O[C@@H]1CC=C(C)C [Example 28, (3R,4S,5S,6R)-5-methoxy-4-((2R,3R)-2-methyl-3-(3-methylbut-2-enyl)oxiran-2-yl)-1-oxaspiro[2.5]octan-6-yl 9-methyl-3,9-diazaspiro[5.5]undecane-3-carboxylate] | 8% |  |
|  | CO[C@@H]1[C@H](OC(=O)N2C[C@@H]3[C@@H](CN4CCOCC4)[C@@H]3C2)CC[C@]2(CO2)[C@H]1[C@@]1(C)O[C@@H]1CC=C(C)C [Example 40, (1R,5S,6S)-((3R,4S,5S,6R)-5-methoxy-4-((2R,3R)-2-methyl-3-(3-methylbut-2-enyl)oxiran-2-yl)-1-oxaspiro[2.5]octan-6-yl) 6-(morpholinomethyl)-3-azabicyclo[3.1.0]hexane-3-carboxylate] | 11.1% |  |
|  | CO[C@@H]1[C@H](OC(=O)N2CC3CC3C2)CC[C@]2(CO2)[C@H]1[C@@]1(C)O[C@@H]1CC=C(C)C (stereo partly drawn) [Example 21, (3R,4S,5S,6R)-5-methoxy-4-((2R,3R)-2-methyl-3-(3-methylbut-2-enyl)oxiran-2-yl)-1-oxaspiro[2.5]octan-6-yl 3-azabicyclo[3.1.0]hexane-3-carboxylate] | 21.2% |  |
| < 50 nM | CO[C@@H]1[C@H](OC(=O)N2CCC3(CCN(C)CC3)C2)CC[C@]2(CO2)[C@H]1[C@@]1(C)O[C@@H]1CC=C(C)C [Example 26, (3R,4S,5S,6R)-5-methoxy-4-((2R,3R)-2-methyl-3-(3-methylbut-2-enyl)oxiran-2-yl)-1-oxaspiro[2.5]octan-6-yl 8-methyl-2,8-diazaspiro[4.5]decane-2-carboxylate] | 5.6% |  |
|  | CO[C@@H]1[C@H](OC(=O)N2CCC3(CN(CC(F)F)C3)C2)CC[C@]2(CO2)[C@H]1[C@@]1(C)O[C@@H]1CC=C(C)C [Example 15, (3R,4S,5S,6R)-5-methoxy-4-((2R,3R)-2-methyl-3-(3-methylbut-2-enyl)oxiran-2-yl)-1-oxaspiro[2.5]octan-6-yl 2-(2,2-difluoroethyl)-2,6-diazaspiro[3.4]octane-6-carboxylate] | 22.5% |  |
|  | CO[C@@H]1[C@H](OC(=O)N2CC3(CNC(=O)C3)C2)CC[C@]2(CO2)[C@H]1[C@@]1(C)O[C@@H]1CC=C(C)C [Example 25, (3R,4S,5S,6R)-5-methoxy-4-((2R,3R)-2-methyl-3-(3-methylbut-2-enyl)oxiran-2-yl)-1-oxaspiro[2.5]octan-6-yl 7-oxo-2,6-diazaspiro[3.4]octane-2-carboxylate] | 2% | < 50 nM |
|  | COC(=O)N1C[C@@H]2CN(C(=O)O[C@@H]3CC[C@]4(CO4)[C@@H]([C@@]4(C)O[C@@H]4CC=C(C)C)[C@@H]3OC)C[C@@H]2C1 [Example 42, (3aR,6aS)-2-((3R,4S,5S,6R)-5-methoxy-4-((2R,3R)-2-methyl-3-(3-methylbut-2-enyl)oxiran-2-yl)-1-oxaspiro[2.5]octan-6-yl) 5-methyl tetrahydropyrrolo[3,4-c]pyrrole-2,5(1H,3H)-dicarboxylate] | 12.4% |  |
| 50 to 500 nM | CNC(=O)[C@H]1[C@@H]2CN(C(=O)O[C@@H]3CC[C@]4(CO4)[C@@H]([C@@]4(C)O[C@@H]4CC=C(C)C)[C@@H]3OC)C[C@@H]21 [Example 32, (1R,5S,6R)-(3R,4S,5S,6R)-5-methoxy-4-((2R,3R)-2-methyl-3-(3-methylbut-2-en-1-yl)oxiran-2-yl)-1-oxaspiro[2.5]octan-6-yl 6-(methylcarbamoyl)-3-azabicyclo[3.1.0]hexane-3-carboxylate] | 4% |  |
|  | CO[C@@H]1[C@H](OC(=O)N2CCC3(CCN(C)C(=O)C3)CC2)CC[C@]2(CO2)[C@H]1[C@@]1(C)O[C@@H]1CC=C(C)C [Example 31, (3R,4S,5S,6R)-5-methoxy-4-((2R,3R)-2-methyl-3-(3-methylbut-2-enyl)oxiran-2-yl)-1-oxaspiro[2.5]octan-6-yl 9-methyl-8-oxo-3,9-diazaspiro[5.5]undecane-3-carboxylate] | 3.6% |  |
| < 50 nM | CO[C@@H]1[C@H](OC(=O)N2C[C@@H]3[C@H](C2)[C@H]3C(N)=O)CC[C@]2(CO2)[C@H]1[C@@]1(C)O[C@@H]1CC=C(C)C [Example 34, (1R,5S,6R)-(3R,4S,5S,6R)-5-methoxy-4-((2R,3R)-2-methyl-3-(3-methylbut-2-en-1-yl)oxiran-2-yl)-1-oxaspiro[2.5]octan-6-yl 6-carbamoyl-3-azabicyclo[3.1.0]hexane-3-carboxylate] | 3% |  |
| 50 to 500 nM | CO[C@@H]1[C@H](OC(=O)N2C[C@@H]3[C@H](C2)[C@H]3C(=O)N(C)C)CC[C@]2(CO2)[C@H]1[C@@]1(C)O[C@@H]1CC=C(C)C [Example 33, (1R,5S,6R)-(3R,4S,5S,6R)-5-methoxy-4-((2R,3R)-2-methyl-3-(3-methylbut-2-en-1-yl)oxiran-2-yl)-1-oxaspiro[2.5]octan-6-yl 6-(dimethylcarbamoyl)-3-azabicyclo[3.1.0]hexane-3-carboxylate] | 13.8% |  |
|  | CO[C@@H]1[C@H](OC(=O)N2CCC3(CC2)CNC(=O)C3)CC[C@]2(CO2)[C@H]1[C@@]1(C)O[C@@H]1CC=C(C)C [Example 29, (3R,4S,5S,6R)-5-methoxy-4-((2R,3R)-2-methyl-3-(3-methylbut-2-enyl)oxiran-2-yl)-1-oxaspiro[2.5]octan-6-yl 3-oxo-2,8-diazaspiro[4.5]decane-8-carboxylate] | -0.5% |  |
|  | CO[C@@H]1[C@H](OC(=O)N2CCC3(CCNC(=O)C3)CC2)CC[C@]2(CO2)[C@H]1[C@@]1(C)O[C@@H]1CC=C(C)C [Example 30, (3R,4S,5S,6R)-5-methoxy-4-((2R,3R)-2-methyl-3-(3-methylbut-2-enyl)oxiran-2-yl)-1-oxaspiro[2.5]octan-6-yl 8-oxo-3,9-diazaspiro[5.5]undecane-3-carboxylate] | 1.1% |  |
|  | CO[C@@H]1[C@H](OC(=O)N2CCC3(CCN(CC(F)F)CC3)C2)CC[C@]2(CO2)[C@H]1[C@@]1(C)O[C@@H]1CC=C(C)C [Example 16, (3R,4S,5S,6R)-5-methoxy-4-((2R,3R)-2-methyl-3-(3-methylbut-2-enyl)oxiran-2-yl)-1-oxaspiro[2.5]octan-6-yl 8-(2,2-difluoroethyl)-2,8-diazaspiro[4.5]decane-2-carboxylate] | 23.4% |  |
|  | CO[C@@H]1[C@H](OC(=O)N2C[C@@H]3[C@H](C2)[C@H]3C(=O)NCCN2CCOCC2)CC[C@]2(CO2)[C@H]1[C@@]1(C)O[C@@H]1CC=C(C)C [Example 37, (1R,5S,6R)-(3R,4S,5S,6R)-5-methoxy-4-((2R,3R)-2-methyl-3-(3-methylbut-2-en-1-yl)oxiran-2-yl)-1-oxaspiro[2.5]octan-6-yl 6-((2-morpholinoethyl)carbamoyl)-3-azabicyclo[3.1.0]hexane-3-carboxylate] | 4.3% |  |
